# Assay results from US8802700B2 (Vertex Pharmaceuticals Incorporated, priority 2010, dated 2014).
# Target: T1, ΔF508-CFTR (Homo sapiens, UniProt P13569, DEL508-508)
# T1 construct: expressed in transfected cells
# Assay: Membrane potential optical assay (FRET voltage-sensor dyes, VIPR), identification of potentiator compounds
# Format: cell-based
# Conditions: Table 3; assay not given; read-out: % Activity (% Efficacy, relative efficacy)
# Procedure, shortened: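 Potentiator screen measured membrane potential via FRET between CC2-DMPE donor and DiSBAC2(3), read on VIPR II. Compound went in with the first addition of chloride-free gluconate bath; cells were ΔF508-CFTR-expressing NIH3T3 mouse fibroblasts, temperature-corrected at 27 °C for 24 h.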
# T1 sequence (P13569 with tags, fused parts or gaps DEL508-508): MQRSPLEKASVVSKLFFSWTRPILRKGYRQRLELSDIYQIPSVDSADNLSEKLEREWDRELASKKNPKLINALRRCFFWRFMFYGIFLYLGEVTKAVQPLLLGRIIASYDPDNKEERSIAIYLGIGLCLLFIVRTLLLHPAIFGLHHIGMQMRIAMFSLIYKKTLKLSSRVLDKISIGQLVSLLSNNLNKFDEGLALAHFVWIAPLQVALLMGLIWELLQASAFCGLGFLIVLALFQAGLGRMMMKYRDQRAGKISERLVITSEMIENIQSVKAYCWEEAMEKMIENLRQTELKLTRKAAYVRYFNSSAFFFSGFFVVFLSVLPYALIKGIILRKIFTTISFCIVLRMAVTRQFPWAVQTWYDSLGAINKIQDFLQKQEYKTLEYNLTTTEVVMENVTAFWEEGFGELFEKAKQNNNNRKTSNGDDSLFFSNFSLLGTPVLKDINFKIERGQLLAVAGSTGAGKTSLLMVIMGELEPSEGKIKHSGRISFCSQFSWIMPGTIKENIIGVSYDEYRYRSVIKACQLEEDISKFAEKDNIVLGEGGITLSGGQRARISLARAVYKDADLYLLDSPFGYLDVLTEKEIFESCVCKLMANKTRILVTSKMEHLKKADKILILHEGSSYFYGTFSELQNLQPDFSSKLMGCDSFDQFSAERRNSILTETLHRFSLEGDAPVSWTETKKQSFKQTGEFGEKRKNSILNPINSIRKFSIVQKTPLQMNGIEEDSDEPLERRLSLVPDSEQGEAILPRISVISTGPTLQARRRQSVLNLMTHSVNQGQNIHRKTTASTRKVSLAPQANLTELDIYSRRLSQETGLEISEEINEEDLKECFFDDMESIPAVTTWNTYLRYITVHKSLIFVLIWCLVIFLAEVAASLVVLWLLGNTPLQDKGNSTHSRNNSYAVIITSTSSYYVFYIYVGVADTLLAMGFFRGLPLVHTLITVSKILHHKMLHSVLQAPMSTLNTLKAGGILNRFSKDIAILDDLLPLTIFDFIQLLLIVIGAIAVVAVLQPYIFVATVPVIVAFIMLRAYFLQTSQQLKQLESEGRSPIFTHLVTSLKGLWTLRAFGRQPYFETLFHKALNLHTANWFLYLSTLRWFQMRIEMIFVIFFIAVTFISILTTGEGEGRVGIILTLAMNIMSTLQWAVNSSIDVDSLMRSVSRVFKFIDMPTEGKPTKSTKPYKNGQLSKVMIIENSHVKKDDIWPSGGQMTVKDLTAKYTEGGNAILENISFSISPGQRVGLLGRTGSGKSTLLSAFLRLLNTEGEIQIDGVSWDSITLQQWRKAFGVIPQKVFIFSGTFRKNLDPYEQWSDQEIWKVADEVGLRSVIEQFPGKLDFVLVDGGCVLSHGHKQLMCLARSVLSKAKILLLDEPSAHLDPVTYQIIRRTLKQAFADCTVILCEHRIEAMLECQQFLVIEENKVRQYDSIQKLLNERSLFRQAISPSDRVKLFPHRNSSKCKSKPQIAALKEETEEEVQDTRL
row,Emax [%],Compound
1,< 25,"COc1cc(C#N)c(NC(=O)c2c[nH]c3ccccc3c2=O)cc1OC [Compound 106, N-(2-cyano-4,5-dimethoxy-phenyl)-4-oxo-1H-quinoline-3-carboxamide]"
2,< 25,"CC(CO)(CO)c1ccc(NC(=O)c2c[nH]c3ccccc3c2=O)cc1 [Compound 590, N-[4-[2-hydroxy-1-(hydroxymethyl)-1-methyl-ethyl]phenyl]-4-oxo-1H-quinoline-3-carboxamide]"
3,25 to 100,"CCc1cc2cc[nH]c2cc1NC(=O)c1c[nH]c2cccc(O)c2c1=O [Compound 591, N-(5-ethyl-1H-indol-6-yl)-5-hydroxy-4-oxo-1H-quinoline-3-carboxamide]"
4,25 to 100,"CC1(c2ccc(NC(=O)c3c[nH]c4ccc(F)cc4c3=O)cc2)COC1 [Compound 521, 6-fluoro-N-[4-(3-methyloxetan-3-yl)phenyl]-4-oxo-1H-quinoline-3-carboxamide]"
5,25 to 100,"NCc1ccccc1-c1ccc(NC(=O)c2c[nH]c3ccccc3c2=O)cc1 [Compound 86, N-[4-[2-(aminomethyl)phenyl]phenyl]-4-oxo-1H-quinoline-3-carboxamide]"
6,25 to 100,"O=C(Nc1cc(C(F)(F)F)ccc1C(F)(F)F)c1c[nH]c2ccccc2c1=O [Compound 630, N-[2,5-bis(trifluoromethyl)phenyl]-4-oxo-1H-quinoline-3-carboxamide]"
7,25 to 100,"Nc1cc(NC(=O)c2c[nH]c3ccccc3c2=O)ccc1Cl [Compound 453, N-(3-amino-4-chloro-phenyl)-4-oxo-1H-quinoline-3-carboxamide]"
8,25 to 100,"COC(=O)Nc1cc(NC(=O)c2c[nH]c3ccccc3c2=O)ccc1C(C)(C)C [Compound 14, [5-[(4-oxo-1H-quinolin-3-yl)carbonylamino]-2-tert-butyl-phenyl]aminoformic acid methyl ester]"
9,25 to 100,"O=C(Nc1ccc(C(F)(F)F)c(O)c1)c1c[nH]c2ccc(F)cc2c1=O [Compound 650, 6-fluoro-N-[3-hydroxy-4-(trifluoromethyl)phenyl]-4-oxo-1H-quinoline-3-carboxamide]"
10,25 to 100,"CC(C)(C)c1cc(C(F)(F)F)c(NC(=O)c2c[nH]c3cccc(O)c3c2=O)cc1O [Compound 487, 5-hydroxy-N-[5-hydroxy-4-tert-butyl-2-(trifluoromethyl)phenyl]-4-oxo-1H-quinoline-3-carboxamide]"
11,< 25,"COc1ccc(NC(=O)c2c[nH]c3ccccc3c2=O)cn1 [Compound 162, N-(6-methoxy-3-pyridyl)-4-oxo-1H-quinoline-3-carboxamide]"
12,25 to 100,"O=C(Nc1cccc2ccccc12)c1c[nH]c2ccccc2c1=O [Compound 350, N-(1-naphthyl)-4-oxo-1H-quinoline-3-carboxamide]"
13,25 to 100,"O=C(Nc1ccc2c(c1)NCCCC2)c1c[nH]c2ccccc2c1=O [Compound 10, 1,4-dihydro-N-(2,3,4,5-tetrahydro-1H-benzo[b]azepin-8-yl)-4-oxoquinoline-3-carboxamide]"
14,25 to 100,"CSc1ccccc1NC(=O)c1c[nH]c2ccccc2c1=O [Compound 229, N-(2-methylsulfanylphenyl)-4-oxo-1H-quinoline-3-carboxamide]"
15,25 to 100,"O=C(Nc1ccc(Oc2cccnc2)cc1)c1c[nH]c2ccccc2c1=O [Compound 614, 4-oxo-N-[4-(3-pyridyloxy)phenyl]-1H-quinoline-3-carboxamide]"
16,25 to 100,"O=C(Nc1ccc(C(F)(F)F)cc1N1CCCCC1)c1c[nH]c2ccccc2c1=O [Compound 514, 4-oxo-N-[2-(1-piperidyl)-4-(trifluoromethyl)phenyl]-1H-quinoline-3-carboxamide]"
17,25 to 100,"O=C(Nc1cc(Cl)cc(NS(=O)(=O)CCN2CCCCC2)c1)c1c[nH]c2ccccc2c1=O [Compound 133, N-[3-chloro-5-[2-(1-piperidyl)ethylsulfonylamino]phenyl]-4-oxo-1H-quinoline-3-carboxamide]"
18,< 25,"COc1nc(NC(=O)c2c[nH]c3ccccc3c2=O)ccc1C(F)(F)F [Compound 571, N-[6-methoxy-5-(trifluoromethyl)-2-pyridyl]-4-oxo-1H-quinoline-3-carboxamide]"
